Patent publication US11857550B2, “Benzathine analogs” (University of Pittsburgh—Of the Commonwealth System of …, priority 2012, dated 2024)

Test system: C57BL6 mice
Type: in vivo
Details: 30 ug/ml in drinking water, day 5

**Q.** With c1ccc(-c2ccc(CNCCNCc3ccc(-c4ccccn4)cc3)cc2)nc1 [BC-1215] as the compound, how does the lung resistance read?
**A.** decreased lung resistance
